Test results taken from patent US20060030537A1, “Ceramide kinase and uses thereof” (priority 2004, published 2006).

Columns and labels:
ceramide kinase mRNA = assay: RT-PCR of ceramide kinase mRNA in A549 cells; type: cell-based, human; conditions: 26 hours after transfection, normalized to 18s ribosomal RNA
Procedure: FIGS. 6A-6B. Ceramide kinase RNAi downregulates endogenous ceramide kinase activity and mRNA levels. FIG. 6A. The effect of ceramide kinase RNAi on endogenous ceramide kinase activity. A549 cells (5×10^4) were transfected with the 21-nucleotide duplexes for ceramide kinase or scrambled control sequence. Following the 4 hour transfection, cells incubated in normal growth media for 26 hours. Cells were then washed, lysed in assay buffer, and assayed for ceramide kinase activity. Data are presented as % control ceramide kinase activity with control RNAi (Control) or ceramide kinase RNAi (CerK RNAi). Data are representative of three separate determinations on two separate occasions. FIG. 6B. The effect of ceramide kinase RNAi on the mRNA levels of ceramide kinase. Following the same procedure as outlined in FIG. 6A, total RNA was extracted and analyzed via logarithmic reverse-transcriptase polymerase chain reaction for human ceramide kinase and 18s ribosomal RNA. Data are presented as percent control after the densitometry of ceramide kinase mRNA was normalized to 18s ribosomal RNA levels with control RNAi (Control) or ceramide kinase RNAi (CerK RNAi). Data are representative of three separate determinations on two separate occasions. […]

L929 fibroblasts = assay: PGE2 synthesis in L929 fibroblasts; type: cell-based; conditions: L929 fibroblasts
Procedure: FIGS. 3A-3B. FIG. 3A. The effects of ceramide-1-phosphate on TXB2 synthesis. A549 cells (1×10^5) were treated with D-e-C16 ceramide-1-phosphate (1 μM) solubilized in 2% dodecane/98% ethanol (final concentration in treatments was 0.002% dodecane/0.098% ethanol (EtOH)) for the indicated times. The results are presented as % control of TXB2 controlled for equivalent number of cells by MTT assay. Data are representative of 3 separate determinations on 2 separate occasions. FIG. 3B. The effects of ceramide-1-phosphate on AA release and PGE2 synthesis in L929 fibroblasts. L929 cells (5×10^4) were labeled overnight with 5 μCi/mL [^3H]-arachidonic acid (5 nM). Cells were washed and placed in DMEM supplemented with 2% fetal bovine serum for two hours. Cells were then treated with 2.5 μM D-e-C16 ceramide-1-phosphate (solubilized in 98% ethanol/2% dodecane) for the indicated times. […]
Quantification of prostaglandin E2 and thromboxane B2 synthesis: For measurement of PGE2 and TXB2 levels, aliquots of media were taken at indicated time points and assayed according to manufacturer's instructions using the prostaglandin E2 and thromboxane B2 monoclonal EIA Kit from Cayman Chemical. […] Results were controlled for equivalent number of cells quantified by MTT assay.

Substance: ceramide kinase RNAi: 21-nucleotide duplex, human ceramide kinase RNAi starting 142 nucleotides from start codon (SEQ ID NO: 3 and 4) (chain 1 UGCCUGCUCUGUGCCUGUATT; chain 2 UACAGGCACAGAGCAGGCATT; chemistry not given here)
- decrease of ceramide kinase mRNA levels (ceramide kinase mRNA): 73%
- inhibition of PGE2 synthesis in response to IL-1β (L929 fibroblasts): over 60%
